Here are results for 1 molecule from patent US4528020A, “Urease inhibited urea based fertilizer compositions” (Allied Corporation, priority 1983, dated 1985).

The assay has as its target jack bean urease (Canavalia ensiformis, UniProt P07374). The assay is described as follows: Urease inhibition in solution (modified Bremner procedure, purified jack bean urease in aqueous solution). To be noted: commercial purified jack bean urease. It is filed as biochemical. As for the experimental part:
Efficacy tests were conducted with jack bean urease. The procedure of Bremner (See. L. A. Douglas, J. M. Bremner, Soil Biology Biochem., 3, 859-859 (1970), and references cited therein was modified by replacing the soil as the source of urease with commercial purified jack bean urease. The incubation then proceeds in aqueous solution. The results are set forth in the following Table I.

jack bean urease, sequence (P07374 whole entry, looked up): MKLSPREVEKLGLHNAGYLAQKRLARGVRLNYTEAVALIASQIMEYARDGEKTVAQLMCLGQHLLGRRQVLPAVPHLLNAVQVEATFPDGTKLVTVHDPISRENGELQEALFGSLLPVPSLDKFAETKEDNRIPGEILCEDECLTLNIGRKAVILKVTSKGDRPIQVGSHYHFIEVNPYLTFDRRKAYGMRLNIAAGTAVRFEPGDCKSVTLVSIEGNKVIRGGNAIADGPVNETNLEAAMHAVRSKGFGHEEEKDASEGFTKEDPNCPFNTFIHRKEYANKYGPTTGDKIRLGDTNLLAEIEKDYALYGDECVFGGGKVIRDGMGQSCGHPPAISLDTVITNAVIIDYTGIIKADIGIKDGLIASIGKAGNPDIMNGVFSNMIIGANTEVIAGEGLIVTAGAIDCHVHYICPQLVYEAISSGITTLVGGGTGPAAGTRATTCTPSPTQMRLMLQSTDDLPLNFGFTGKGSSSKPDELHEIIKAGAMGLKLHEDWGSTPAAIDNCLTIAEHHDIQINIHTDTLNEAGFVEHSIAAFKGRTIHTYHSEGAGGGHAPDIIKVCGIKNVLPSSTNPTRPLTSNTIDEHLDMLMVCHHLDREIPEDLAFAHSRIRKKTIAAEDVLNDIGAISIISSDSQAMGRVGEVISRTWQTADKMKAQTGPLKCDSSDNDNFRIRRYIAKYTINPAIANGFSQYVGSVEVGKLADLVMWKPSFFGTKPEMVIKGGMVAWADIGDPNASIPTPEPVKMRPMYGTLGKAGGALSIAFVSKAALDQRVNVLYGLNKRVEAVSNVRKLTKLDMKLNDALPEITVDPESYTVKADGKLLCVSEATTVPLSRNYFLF

On to `NP(N)(=O)NC(=O)c1ccc(N2C(=O)C=CC2=O)cc1` [N-(diaminophosphinyl)-4-(1'-maleimido)benzamide], for which the inhibition at 1 µM (compound at 10^-6 M, read-out: % Inhibition at Specific Concentration 10^-6 M) stood at 59%. For the same molecule, the inhibition at 0.1 µM (compound at 10^-7 M, read-out: % Inhibition at Specific Concentration 10^-7 M) turned out to be 8%.
